Paper PMC8908738 (2022)
Each block holds one compound with its values, some of them ahead of it.

Assays:
[1] = tested on: 5'ATP aptamer-bridge (DNA, aptamer) CTAGCGAGCGAACTTTACCTGGGGGAGTATTGCGGAGGAAGGT; test: CD of origami-AuNR probe, single concentration; details: 5 mM Mg2+, PBS, room temperature, overnight, up to 1 mM
[2] = tested on: 5'ATP aptamer-bridge (DNA, aptamer) CTAGCGAGCGAACTTTACCTGGGGGAGTATTGCGGAGGAAGGT; test: CD of origami-AuNR probe, competitive hybridization, ATP concentration varied; details: 5 mM Mg2+, PBS, room temperature, overnight, ATP 1 μM to 1 mM, displaced 5'ATPCS9 (n = 9)
[3] = tested on: 5'ATP aptamer-bridge (DNA, aptamer) CTAGCGAGCGAACTTTACCTGGGGGAGTATTGCGGAGGAAGGT; test: CD of origami-AuNR probe, competitive hybridization, complementary strand length varied; details: 5 mM Mg2+, PBS, room temperature, overnight, 1 mM ATP, displaced 5'ATPCS9-12, R^2 0.96
[4] = tested on: 5'glucose aptamer-bridge (DNA, aptamer) CTAGCGAGCGAACTTTACGACCGTGTGTGTTGCTCTGTAACAGTGTCCATTGTCGT; test: as above; details: 5 mM Mg2+, PBS, room temperature, overnight, 100 mM glucose, displaced 5'gluCS8-12, R^2 0.99
[5] = tested on: 5'glucose aptamer-bridge (DNA, aptamer) CTAGCGAGCGAACTTTACGACCGTGTGTGTTGCTCTGTAACAGTGTCCATTGTCGT; test: CD of origami-AuNR probe, single concentration; details: 5 mM Mg2+, PBS, room temperature, overnight, up to 100 mM fructose, displaced 5' strand n = 10

- binding ([1]; displaced 5'ATPCS9, CD change 3.6% (ATP 53.7%)): no
SMILES: Nc1nc2c(ncn2[C@@H]2O[C@H](COP(=O)(O)OP(=O)(O)OP(=O)(O)O)[C@@H](O)[C@H]2O)c(=O)[nH]1

- KD2^ATP [2]: 4.54 ± 0.580 µM
- KD2^ATP [3]: 5.71 ± 0.865 µM
SMILES: Nc1ncnc2c1ncn2[C@@H]1O[C@H](COP(=O)(O)OP(=O)(O)OP(=O)(O)O)[C@@H](O)[C@H]1O

The remaining lines, values behind:

SMILES: Nc1ccn([C@@H]2O[C@H](COP(=O)(O)OP(=O)(O)OP(=O)(O)O)[C@@H](O)[C@H]2O)c(=O)n1
- binding ([1]; displaced 5'ATPCS9, CD change 2.1% (ATP 53.7%)): no

SMILES: OC[C@H]1OC(O)[C@H](O)[C@@H](O)[C@@H]1O (stereo partly drawn)
- KD2^glu [4]: 5.57 ± 0.436 mM

SMILES: OCC1(O)OC[C@@H](O)[C@@H](O)[C@@H]1O (stereo partly drawn)
- binding [5]: no
